Laboratory results taken from paper PMC7536072, “Molecular and functional characterization of somatostatin-type signalling in a deuterostome invertebrate” (Open Biology, 2020).
Entries after “also recorded” stand apart in the source; their conditions may differ. Bridges are numbered along the chain shown (N, C = ends). Where no end group is shown, it is not given here.

Key:
[1] = test system: ArSSR2; assay: GFP-aequorin luminescence receptor activation assay, CHO-K1 cells, ArSSR2 + Gα16; type: cell-based, Asterias rubens
[2] = test system: ArSSR3; assay: GFP-aequorin luminescence receptor activation assay, CHO-K1 cells, ArSSR3 + Gα16; type: cell-based, Asterias rubens
[3] = test system: apical muscle preparations from A. rubens; assay: in vitro contractility of apical muscle preparations; set-up: species or system Asterias rubens; conditions: data not shown
Description: Synthetic ArSS2 ([…], with a disulfide bridge between the cysteine residues) was custom synthesized (Peptide Protein Research Ltd, Fareham, UK) to enable testing of its pharmacological effects on in vitro preparations of organs/muscles from A. rubens. ArSS2 was tested for its in vitro effects on the contractility of tube foot, apical muscle and cardiac stomach preparations from at least six different specimens of A. rubens. Individual tube foot preparations were dissected from starfish arms with their corresponding ampulla intact. Then cotton ligatures were tied around the ambulacral body wall and the tube foot disc and then the external epithelium of the tube foot was scraped off using a blunt scalpel blade to facilitate penetration of peptides when tested in vitro, as described previously. Apical muscle preparations were dissected from the aboral body wall with approximately 1 cm strips of apical muscle tied at each end with cotton ligatures. Cardiac stomach preparations were dissected as described previously and then were tied at the aboral side of the cardiac stomach and around the oesophagus with cotton ligatures. […] Data collected from PowerLab were visualized as traces and analysed using LabChart (v. 8.0.7) software installed on a laptop computer (Lenovo E540, Windows 7 Professional). […]

[4] = test system: cardiac stomach preparations from A. rubens; assay: in vitro relaxation of cardiac stomach preparations; set-up: species or system Asterias rubens
Description: Synthetic ArSS2 ([…], with a disulfide bridge between the cysteine residues) was custom synthesized (Peptide Protein Research Ltd, Fareham, UK) to enable testing of its pharmacological effects on in vitro preparations of organs/muscles from A. rubens. ArSS2 was tested for its in vitro effects on the contractility of tube foot, apical muscle and cardiac stomach preparations from at least six different specimens of A. rubens. Individual tube foot preparations were dissected from starfish arms with their corresponding ampulla intact. Then cotton ligatures were tied around the ambulacral body wall and the tube foot disc and then the external epithelium of the tube foot was scraped off using a blunt scalpel blade to facilitate penetration of peptides when tested in vitro, as described previously. Apical muscle preparations were dissected from the aboral body wall with approximately 1 cm strips of apical muscle tied at each end with cotton ligatures. Cardiac stomach preparations were dissected as described previously and then were tied at the aboral side of the cardiac stomach and around the oesophagus with cotton ligatures. The dissected preparations were tied to a fixed metal hook orally and to a high-grade isotonic transducer (MLT0015; ADInstruments Ltd; Oxford, UK) aborally, suspended in a 20 ml aerated organ bath containing artificial seawater at approximately 11°C. The transducer was connected via a bridge amplifier (FE221 Bridge Amp, ADInstruments Ltd, Oxford, UK) to data acquisition hardware (PowerLab 2/36, ADInstruments Ltd, Oxford, UK). Data collected from PowerLab were visualized as traces and analysed using LabChart (v. 8.0.7) software installed on a laptop computer (Lenovo E540, Windows 7 Professional).
To examine the effects of ArSS2 on tube foot and cardiac stomach preparations, 10^−6 M acetylcholine (ACh) or artificial seawater (ASW) containing 30 mM added KCl was used to induce contraction of these preparations, respectively. Once a stable baseline contracted state was achieved, synthetic ArSS2 was added into the organ bath to sequentially achieve final concentrations in the range of 10^−10 to 10^−6 M. For these experiments, the contracting effect of 10^−6 M ACh or ASW containing 30 mM added KCl was defined as 100% and the relaxing effects of ArSS2 were then calculated as a percentage reversal of the 100% contracted state.
Experiments were performed where the effects of ArSS2, S2 and asterotocin (at 10^−7 and 10^−6 M) on cardiac stomach preparations (n = 6) were compared. For these experiments, the effect of 10^−7 or 10^−6 M S2 was defined as 100% and the effect of asterotocin or ArSS2 was calculated as a % of the effect of S2. To determine if there were significant differences in magnitude of the relaxing effects of the three peptides on cardiac stomach preparations, data were analysed statistically using a two-tailed Student's t-test in Prism 6.

[5] = 10^−7 M, KCl-contracted, mean, n = 6

Sequence of ArSSR3 (as listed by the source): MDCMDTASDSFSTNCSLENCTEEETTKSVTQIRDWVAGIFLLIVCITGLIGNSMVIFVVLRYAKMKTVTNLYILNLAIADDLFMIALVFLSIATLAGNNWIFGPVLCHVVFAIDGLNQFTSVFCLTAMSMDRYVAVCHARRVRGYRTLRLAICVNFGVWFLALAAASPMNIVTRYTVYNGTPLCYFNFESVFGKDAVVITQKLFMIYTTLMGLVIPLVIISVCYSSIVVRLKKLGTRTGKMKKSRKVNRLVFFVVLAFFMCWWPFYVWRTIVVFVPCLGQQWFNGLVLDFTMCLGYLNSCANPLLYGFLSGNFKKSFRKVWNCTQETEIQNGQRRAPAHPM

RAKNARCMADFWKGRGLVDC (disulfide 7-20 (inferred)) [ArSS2]
EC50 ([1]; ArSSR2 + Gα16 in CHO-K1 cells expressing GFP-aequorin (G5A), peptide 10^−21 to 10^−4 M, luminescence over 35 s, mean of at least three independent experiments, three repeats each, read-out: half-maximal response concentration (EC50)): 4.2 pM | mean total luminescence response relative to background ([1]; ArSSR2, 10^−5 M, background detected with assay media or with ArSS1): 166 303 times the background luminescence | luminescence compared with control ([1]; ArSSR2, 10^−5 M, vs BSA media (control) and, for ArSS2, vs ArSS1, one-way ANOVA, Bonferroni): significantly higher than the luminescence in cells exposed to ArSS1 or BSA media (control) | triggering of luminescence ([1]; ArSSR2, 10^−21 to 10^−4 M): caused dose-dependent luminescence | EC50 ([2]; ArSSR3 + Gα16 in CHO-K1 cells expressing GFP-aequorin (G5A), peptide 10^−21 to 10^−4 M, luminescence over 35 s, mean of at least three independent experiments, three repeats each, read-out: half-maximal response concentration (EC50)): 1400 pM | mean total luminescence response relative to background ([2]; ArSSR3, 10^−5 M, background detected with assay media or with ArSS1): 46 575 times the background luminescence | luminescence compared with control ([2]; ArSSR3, 10^−5 M, vs BSA media (control) and, for ArSS2, vs ArSS1, one-way ANOVA, Bonferroni): significantly higher than the luminescence in cells exposed to ArSS1 or BSA media (control) | triggering of luminescence ([2]; ArSSR3, 10^−21 to 10^−4 M): caused dose-dependent luminescence | effect on contractility of apical muscle preparations [3]: did not cause relaxation; also recorded: no observable effects | extent of relaxation of cardiac stomach preparations ([4]; 10^−6 M): maximal relaxation | magnitude of cardiac stomach relaxing action compared with S2 ([4]; 10^−6 M, KCl-contracted, n = 6): not significantly different to the effect S2 | reversal of KCl-induced cardiac stomach contraction ([4]; 10^−6 M, contraction induced by 30 mM KCl = 100%, artificial seawater, approximately 11°C, mean ± s.e.m., n = 10): 60 ± 18% | magnitude of cardiac stomach relaxing action relative to S2 [4, 5]: 1.5 times the effect of S2 | magnitude of cardiac stomach relaxing action relative to asterotocin [4, 5]: 44 % of the effect of asterotocin | relaxing effect compared with S2 ([4]; 10^−7 M, two-tailed Student's t-test p = 0.0303, n = 6): significantly larger than the effect of S2 | relaxation of cardiac stomach preparations ([4]; pre-contracted with 30 mM KCl, tested 10^−10 to 10^−6 M): dose-dependent relaxation of cardiac stomach preparations at concentrations between 10^−9 and 10^−6 M
